The text below walks through data of US8722088B2, “Pharmaceutical compositions and methods for the treatment of prostate cancer” (Ferring International Center S.A., priority 2009, dated 2014).

Where a SMILES comes first, the peptide text is derived from it. [ ]: non-standard residue; d: D form. The star is where a group is joined. dPhe(4-NHCONH2) = NC(=O)Nc1ccc(C[C@@H](N)C(=O)O)cc1; Dihydroorotyl(S) = O=C1C[C@@H](C(=O)*)NC(=O)N1; dPhe(4-Cl) = N[C@H](Cc1ccc(Cl)cc1)C(=O)O; Phe(4-NH2) = Nc1ccc(C[C@H](N)C(=O)O)cc1; d2Nal = N[C@H](Cc1ccc2ccccc2c1)C(=O)O; Lys(iPr) = CC(C)NCCCC[C@H](N)C(=O)O; d3Pal = N[C@H](Cc1cccnc1)C(=O)O Some results are limits rather than exact numbers.

One data set in a line: clinical. To be noted: human, in vivo, 240 mg. On the procedure:
A three-month dosing regimen Phase 2 study investigated three different dosing regimens. After a starting dose of […] (with a concentration of 40 mg/mL of solvent), a further dose (i.e., maintenance dose) of 240 mg was given on Day 28, and then at Months 3, 6, and 9 or at Months 4, 7, and 10. Maintenance doses of 240 mg were evaluated initially at concentrations of 40 mg/mL and 60 mg/mL in this study, based on the observed results by different PK profiles of different concentrations. The patients were randomized in parallel to one of three different three-month maintenance dosing regimens of degarelix:
Thus, patients with lower degarelix plasma levels were more likely to have a testosterone level>0.5 ng/mL during the one year treatment period. […] This is consistent with the observation that for most patients, the time of first occurrence of a testosterone level>0.5 ng/mL was three months after a previous dose, at the time of trough degarelix plasma levels. The median trough degarelix plasma levels in the study ranged from about 6.5-7.5 ng/mL.

The test system of the next data set is serum testosterone. Nature of the data set: Previous studies, population PK/PD: proportion of patients with serum testosterone ≦0.5 ng/mL versus plasma degarelix concentration. Type of data set: in vivo, human. The source says: Throughout the ongoing degarelix development program, population pharmacokinetic/pharmacodynamic (PK/PD) modeling and simulations have been employed to get a better understanding of the PK and PD data, and the relationship between these and other parameters. […] Because of the variability in the population, it was considered that this median plasma concentration might not be sufficient to maintain long-term testosterone suppression in approximately 95% of the patients. It was therefore proposed that the dose administered should produce mean serum trough degarelix levels of >9 ng/ml or higher in the Phase 3 studies for the one-month dosing regimen program.
The relationship between proportion of patients castrated [(T)≦0.5 ng/mL] and degarelix concentration after day 28 is illustrated in FIG. 1. FIG. 1 is based on data from 1473 prostate cancer patients in clinical studies by dividing PK levels into intervals 0-1, 1-2, 2-3 ng/mL and so forth and plotting observed proportions against PK interval midpoints together with a smoothing line with 95% confidence interval (CI). Based on this information, approximately 97% of the patients are castrated provided that degarelix concentrations stay above a threshold value of 9-10 ng/mL.

For `CC(=O)N[C@H](Cc1ccc2ccccc2c1)C(=O)N[C@H](Cc1ccc(Cl)cc1)C(=O)N[C@H](Cc1cccnc1)C(=O)N[C@@H](CO)C(=O)N[C@@H](Cc1ccc(NC(=O)[C@@H]2CC(=O)NC(=O)N2)cc1)C(=O)N[C@H](Cc1ccc(NC(N)=O)cc1)C(=O)N[C@@H](CC(C)C)C(=O)N[C@@H](CCCCNC(C)C)C(=O)N1CCC[C@H]1C(=O)N[C@H](C)C(N)=O` [Degarelix, D-Alaninamide, N-acetyl-3-(2-naphthalenyl)-D-alanyl-4-chloro-D-phenylalanyl-3-(3-pyridinyl)-D-alanyl-L-seryl-4-[[[(4S)-hexahydro-2,6-dioxo-4-pyrimidinyl]carbonyl]amino]-L-phenylalanyl-4-[(aminocarbonyl)amino]-D-phenylalanyl-L leucyl-N6-(1-methylethyl)-L-lysyl-L-prolyl] (Ac-[d2Nal][dPhe(4-Cl)][d3Pal]S[Phe(4-NH2)](Dihydroorotyl(S))[dPhe(4-NHCONH2)]L[Lys(iPr)]P[dA]-NH2), in the data set “clinical”, the “estimated median degarelix trough concentration” value is listed as less than 9 ng/mL, the level at 1 year is roughly 7 ng/mL and the level at 3 months after a previous dose lay in the range of 6.5 to 7.5 ng/mL. In addition, the “patients achieving serum testosterone ≦0.5 ng/mL” value in the data set with serum testosterone (Day 28, median trough plasma degarelix 7.34 ng/mL) was determined as 96%. In the data set on serum testosterone (Day 84, median plasma degarelix 4.54 ng/mL), the “patients having testosterone ≦0.5 ng/mL” value was found to be 83%.
